Where two headings read alike, the source gives them in different places.
Experiments:
[1] = test system: T1, 5-enolpyruvylshikimate-3-phosphate synthase (EPSPS), glyphosate-susceptible populations; assay: EPSPS activity in leaf extract, inorganic phosphate release; type: biochemical, Echinochloa crus-galli; conditions: population E2 (susceptible); glyphosate 0-1000 μM; read-out: I50
T1 construct: native enzyme in leaf extract; hexaploid species, homoeologous EPSPS copies not distinguished

[2] = test system: 5-enolpyruvylshikimate-3-phosphate synthase (EPSPS), glyphosate-resistant (R) and very resistant (VR) populations; conditions: read-out: I50, glyphosate 0-1000 μM, stated gain
Text: EPSPS activity in leaf extract, inorganic phosphate release on 5-enolpyruvylshikimate-3-phosphate synthase (EPSPS), glyphosate-resistant (R) and very resistant (VR) populations

## O=C(O)CNCP(=O)(O)O [glyphosate]
[1]
  IC50: 800 nM
[2]; population E7
  IC50: 11.7 µM
[2]; population E9
  IC50: 18.1 µM
[2]; population E10, possible EPSPS overexpression
  IC50: 54.8 µM
[2]; population E12, possible EPSPS overexpression
  IC50: 45.6 µM
